{"source": "paper PMC2748117", "about": "(Journal of medicinal chemistry, 2008)", "key": {"human RFC": {"test_system": "human RFC", "assay": "Inhibition of RFC-mediated [3H]MTX uptake in PC43-10 cells", "type": "cell-based", "details": "unlabeled compound 10 µM, 0.5 µM [3H]MTX, 2 min, 37°C"}, "KB cells [1]": {"test_system": "KB cells", "assay": "Apoptosis assay, Annexin V-FITC flow cytometry", "type": "cell-based, human", "details": "1 µM, 24 h, Annexin V positive cells"}, "KB cells [2]": {"test_system": "KB cells", "assay": "Growth inhibition of KB tumor cells, with folate/nucleoside/AICA protection", "type": "cell-based, human"}, "human TS": {"test_system": "human TS", "details": "ref [22], [23]; cited from earlier work"}, "CCRF-CEM leukemia cell": {"test_system": "CCRF-CEM leukemia cell", "details": "supraphysiologic folate; protected by hypoxanthine, not thymidine; ref [22], [23]; cited from earlier work"}, "[3]": {"test_system": "human folylpolyglutamate synthetase", "details": "ref [23]; cited from earlier work"}, "human DHFR": {"test_system": "human DHFR", "details": "ref [22], [23]; cited from earlier work"}, "KB cells [4]": {"test_system": "KB cells", "assay": "Colony formation and reversibility assay with KB cells", "details": "0.1 to 100 nM drug, 10 days"}}}
{"smiles": "Nc1nc(=O)c2nc(CNc3ccc(C(=O)N[C@@H](CCC(=O)O)C(=O)O)cc3)cnc2[nH]1", "note": "[folic acid]", "values": [{"measurement": "Inhibition of [3H]MTX uptake", "setting": "human RFC", "value": "< 20", "unit": "%"}]}
{"smiles": "COc1cccc2c1C(=O)c1c(O)c3c(c(O)c1C2=O)C[C@@](O)(C(C)=O)C[C@@H]3O[C@H]1C[C@H](N)[C@H](O)[C@H](C)O1", "note": "[daunorubicin]", "values": [{"measurement": "Apoptosis level relative to the antifolate drugs", "setting": "KB cells [1]", "value": 4, "unit": "factor"}]}
{"smiles": "Nc1nc2[nH]c(CCCCc3ccc(C(=O)N[C@@H](CCC(=O)O)C(=O)O)cc3)cc2c(=O)[nH]1", "note": "[Compound 3, N-{4-[4-(2-Amino-4-oxo-4,7-dihydro-3H-pyrrolo[2,3-d]pyrimidin-6-yl)butyl]benzoyl}-L-glutamic Acid]", "values": [{"measurement": "Increase of IC50 between 2 nM and 20 nM LCV", "setting": "KB cells [2]; KB cells, folate-free media, 20 nM versus 2 nM leucovorin", "value": "approximately 3 fold"}, {"measurement": "Increase of IC50 at 40 nM LCV", "setting": "KB cells [2]; KB cells, folate-free media, 40 nM versus 2 nM leucovorin", "value": "~6", "unit": "fold"}, {"measurement": "Inhibition of purified human TS", "setting": "human TS", "value": "poor inhibitors"}, {"measurement": "Inhibition of CCRF-CEM leukemia cell growth", "setting": "CCRF-CEM leukemia cell", "value": "modest inhibitors"}, {"measurement": "Substrate activity for polyglutamylation", "setting": "[3]", "value": "excellent substrates"}, {"measurement": "Inhibition of purified human DHFR", "setting": "human DHFR", "value": "poor inhibitors"}, {"measurement": "Inhibition of colony formation, continuous exposure", "setting": "KB cells [4]", "value": "more potent inhibitors than either compound 4 or MTX"}]}
{"smiles": "Nc1nc2[nH]c(CCCc3ccc(C(=O)N[C@@H](CCC(=O)O)C(=O)O)cc3)cc2c(=O)[nH]1", "note": "[Compound 2]", "values": [{"measurement": "Effect of thymidine on growth inhibitory activity toward KB cells", "setting": "KB cells [2]; 10 µM thymidine", "value": "no effect"}, {"measurement": "Effect of adenosine on growth inhibition of KB cells", "setting": "KB cells [2]; 60 µM adenosine", "value": "completely reversed"}, {"measurement": "Protection by AICA from growth inhibitory effects in KB cells", "setting": "KB cells [2]; 192 µM AICA", "value": "completely protected"}, {"measurement": "Inhibition of purified human TS", "setting": "human TS", "value": "poor inhibitors"}, {"measurement": "Inhibition of CCRF-CEM leukemia cell growth", "setting": "CCRF-CEM leukemia cell", "value": "modest inhibitors"}, {"measurement": "Substrate activity for polyglutamylation", "setting": "[3]", "value": "excellent substrates"}, {"measurement": "Inhibition of purified human DHFR", "setting": "human DHFR", "value": "poor inhibitors"}, {"measurement": "Inhibition of colony formation, continuous exposure", "setting": "KB cells [4]", "value": "more potent inhibitors than either compound 4 or MTX"}]}
